Legend:
[1] = target: T1, PTPN1 (i.e., PTP1B) (Homo sapiens, UniProt P18031); assay: Phosphatase activity assay (DiFMUP substrate), PTP1B; format: biochemical; details: compounds binned ≤1 uM or >1 uM
T1 sequence (P18031 1-435): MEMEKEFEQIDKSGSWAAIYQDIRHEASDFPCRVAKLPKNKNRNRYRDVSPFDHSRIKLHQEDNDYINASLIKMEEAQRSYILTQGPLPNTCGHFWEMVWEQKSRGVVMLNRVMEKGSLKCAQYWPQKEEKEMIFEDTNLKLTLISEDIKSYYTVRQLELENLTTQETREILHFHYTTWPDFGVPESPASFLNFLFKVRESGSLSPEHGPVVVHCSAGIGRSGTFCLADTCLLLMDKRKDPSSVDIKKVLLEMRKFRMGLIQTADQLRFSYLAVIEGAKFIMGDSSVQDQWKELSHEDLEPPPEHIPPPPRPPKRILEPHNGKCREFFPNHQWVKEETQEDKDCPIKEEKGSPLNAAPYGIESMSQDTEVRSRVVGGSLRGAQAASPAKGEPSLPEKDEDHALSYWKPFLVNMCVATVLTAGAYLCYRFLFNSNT
Outline: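 First, serially diluted inhibitor is mixed about 2 minutes with enzyme in pH 7.5 HEPES/NaCl/EDTA/DTT/Tween-20 buffer. Next, DiFMUP is added at the enzyme's Km, approximately 45 μM for PTPN2. Finally, DiFMU appearance is read continuously at room temperature and rates are fitted for IC50.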

[2] = target: T2, PTPN2 (i.e., TC-PTP) (Homo sapiens, UniProt P17706); assay: Phosphatase activity assay (DiFMUP substrate), PTPN2; format: biochemical; details: compounds binned ≤1 uM or >1 uM
T2 sequence (P17706 1-415): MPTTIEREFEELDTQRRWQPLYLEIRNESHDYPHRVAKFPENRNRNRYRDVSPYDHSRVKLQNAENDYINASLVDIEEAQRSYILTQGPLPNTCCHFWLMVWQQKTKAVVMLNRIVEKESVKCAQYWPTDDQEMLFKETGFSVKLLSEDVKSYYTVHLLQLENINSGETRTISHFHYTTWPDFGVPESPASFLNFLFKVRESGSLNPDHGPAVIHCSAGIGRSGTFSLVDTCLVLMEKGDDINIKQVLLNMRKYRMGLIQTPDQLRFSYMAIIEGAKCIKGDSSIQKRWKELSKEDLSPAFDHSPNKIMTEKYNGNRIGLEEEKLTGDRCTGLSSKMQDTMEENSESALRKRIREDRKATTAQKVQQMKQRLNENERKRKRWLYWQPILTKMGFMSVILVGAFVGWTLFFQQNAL
Outline: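 RT, HEPES pH 7.5 buffer with DTT/Tween-20. 10-point inhibitor series premixed ~2 min with enzyme (PTPN2 0.025 ng/ul). Start with DiFMUP at enzyme Km (~45 μM for PTPN2). Read DiFMU ex360/em450 continuously 15–30 min; initial rate vs concentration, 4-parameter fit → IC50.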

Structure (SMILES) | IC50 [1] [µM] | IC50 [2] [µM]
CCOc1ccc(-c2ccc(O)c(N3CC(=O)NS3(=O)=O)c2F)cn1 [Compound 226, 5-(3-(6-ethoxypyridin-3-yl)-2-fluoro-6-hydroxyphenyl)-1,2,5-thiadiazolidin-3-one 1,1-dioxide] | ≤ 1 | ≤ 1
Cn1cc(-c2ccc(O)c(N3CC(=O)NS3(=O)=O)c2F)cn1 [Compound 227, 5-(2-fluoro-6-hydroxy-3-(1-methyl-1H-pyrazol-4-yl)phenyl)-1,2,5-thiadiazolidin-3-one 1,1-dioxide] | ≤ 1 | ≤ 1
NC(=O)Cn1nc(-c2ccc(O)c(N3CC(=O)NS3(=O)=O)c2F)cc1C1CC1 [Compound 229, 2-(5-cyclopropyl-3-(3-(1,1-dioxido-4-oxo-1,2,5-thiadiazolidin-2-yl)-2-fluoro-4-hydroxyphenyl)-1H-pyrazol-1-yl)acetamide] | ≤ 1 | ≤ 1
O=C1CN(c2c(O)ccc(-c3cc(C(=O)N4CCC4)n[nH]3)c2F)S(=O)(=O)N1 [Compound 230, 5-(3-(3-(azetidine-1-carbonyl)-1H-pyrazol-5-yl)-2-fluoro-6-hydroxyphenyl)-1,2,5-thiadiazolidin-3-one 1,1-dioxide] | ≤ 1 | ≤ 1
O=C1CN(c2c(O)ccc(-c3ccc(NS(=O)(=O)CC4CC4)cc3)c2F)S(=O)(=O)N1 [Compound 231, 1-cyclopropyl-N-(3′-(1,1-dioxido-4-oxo-1,2,5-thiadiazolidin-2-yl)-2′-fluoro-4′-hydroxy-[1,1′-biphenyl]-4-yl)methanesulfonamide] | ≤ 1 | ≤ 1
O=C1CN(c2c(O)ccc(-c3cn(CC4CC4)nc3F)c2F)S(=O)(=O)N1 [Compound 233, 5-(3-(1-(cyclopropylmethyl)-3-fluoro-1H-pyrazol-4-yl)-2-fluoro-6-hydroxyphenyl)-1,2,5-thiadiazolidin-3-one 1,1-dioxide] | ≤ 1 | ≤ 1
O=C1CN(c2c(O)ccc(-c3nnc(C4CC4)[nH]3)c2F)S(=O)(=O)N1 [Compound 235, 5-(3-(5-cyclopropyl-4H-1,2,4-triazol-3-yl)-2-fluoro-6-hydroxyphenyl)-1,2,5-thiadiazolidin-3-one 1,1-dioxide] | ≤ 1 | ≤ 1
Cn1cnc(-c2ccc(O)c(N3CC(=O)NS3(=O)=O)c2F)n1 [Compound 237, 5-(2-fluoro-6-hydroxy-3-(1-methyl-1H-1,2,4-triazol-3-yl)phenyl)-1,2,5-thiadiazolidin-3-one 1,1-dioxide] | ≤ 1 | ≤ 1
O=C1CN(c2c(O)ccc(C3=CCN(S(=O)(=O)C4CC4)C3)c2F)S(=O)(=O)N1 [Compound 238, 5-(3-(1-(cyclopropylsulfonyl)-2,5-dihydro-1H-pyrrol-3-yl)-2-fluoro-6-hydroxyphenyl)-1,2,5-thiadiazolidin-3-one 1,1-dioxide] | ≤ 1 | ≤ 1
O=C1CN(c2c(O)ccc(-c3ccn(CC4CC4)c3)c2F)S(=O)(=O)N1 [Compound 240, 5-(3-(1-(cyclopropylmethyl)-1H-pyrrol-3-yl)-2-fluoro-6-hydroxyphenyl)-1,2,5-thiadiazolidin-3-one 1,1-dioxide] | ≤ 1 | ≤ 1
O=C1CN(c2c(O)ccc(-c3cn(C4CCC4)cn3)c2F)S(=O)(=O)N1 [Compound 241, 5-(3-(1-cyclobutyl-1H-imidazol-4-yl)-2-fluoro-6-hydroxyphenyl)-1,2,5-thiadiazolidin-3-one 1,1-dioxide] | ≤ 1 | ≤ 1
O=C1C=C(c2c(O)ccc(-c3cn(C4CC4)cn3)c2F)S(=O)(=O)N1 [Compound 244, 5-(3-(1-cyclopropyl-1H-imidazol-4-yl)-2-fluoro-6-hydroxyphenyl)isothiazol-3(2H)-one 1,1-dioxide] | ≤ 1 | ≤ 1
O=C1CN(c2c(O)ccc(-c3cn(C4CC4)[nH]c3=O)c2F)S(=O)(=O)N1 [Compound 245, 5-(3-(1-cyclopropyl-3-oxo-2,3-dihydro-1H-pyrazol-4-yl)-2-fluoro-6-hydroxyphenyl)-1,2,5-thiadiazolidin-3-one 1,1-dioxide] | ≤ 1 | ≤ 1
CC(C)CCn1cnc(-c2ccc(O)c(C3CC(=O)NS3(=O)=O)c2F)c1 (stereo not shown) [Compound 246, 5-(2-fluoro-6-hydroxy-3-(1-isopentyl-1H-imidazol-4-yl)phenyl)isothiazolidin-3-one 1,1-dioxide] | > 1 | > 1
O=C1CN(c2c(O)ccc(-c3cc(N4CCC5(CCC5)C4)n[nH]3)c2F)S(=O)(=O)N1 [Compound 248, 5-(3-(3-(6-azaspiro[3.4]octan-6-yl)-1H-pyrazol-5-yl)-2-fluoro-6-hydroxyphenyl)-1,2,5-thiadiazolidin-3-one 1,1-dioxide] | ≤ 1 | ≤ 1
O=C1CN(c2c(O)ccc(-c3cnc(C4CC4)o3)c2F)S(=O)(=O)N1 [Compound 249, 5-(3-(2-cyclopropyloxazol-5-yl)-2-fluoro-6-hydroxyphenyl)-1,2,5-thiadiazolidin-3-one 1,1-dioxide] | ≤ 1 | ≤ 1
N#C[C@H]1CC[C@H](n2cnc(-c3ccc(O)c(N4CC(=O)NS4(=O)=O)c3F)c2)CC1 [Compound 250, (1r,4r)-4-(4-(3-(1,1-dioxido-4-oxo-1,2,5-thiadiazolidin-2-yl)-2-fluoro-4-hydroxyphenyl)-1H-imidazol-1-yl)cyclohexane-1-carbonitrile] | ≤ 1 | > 1
O=C1CN(c2c(O)ccc(C3=CCN(S(=O)(=O)CCC(F)(F)F)C3)c2F)S(=O)(=O)N1 [Compound 251, 5-(2-fluoro-6-hydroxy-3-(1-((3,3,3-trifluoropropyl)sulfonyl)-2,5-dihydro-1H-pyrrol-3-yl)phenyl)-1,2,5-thiadiazolidin-3-one 1,1-dioxide] | ≤ 1 | ≤ 1

Results, then the compound that gave them:

IC50 [1] [µM] | IC50 [2] [µM] | Structure (SMILES)
≤ 1 | ≤ 1 | O=C1CN(c2c(O)ccc(-c3cnn(CCC4CCOC4)c3)c2F)S(=O)(=O)N1 (stereo not shown) [Compound 228, 5-(2-fluoro-6-hydroxy-3-(1-(2-(tetrahydrofuran-3-yl)ethyl)-1H-pyrazol-4-yl)phenyl)-1,2,5-thiadiazolidin-3-one 1,1-dioxide]
≤ 1 | ≤ 1 | CC(=O)N(C)C1CCC=C(c2ccc(O)c(N3CC(=O)NS3(=O)=O)c2F)C1 (stereo not shown) [Compound 232, N-(3′-(1,1-dioxido-4-oxo-1,2,5-thiadiazolidin-2-yl)-2′-fluoro-4′-hydroxy-2,3,4,5-tetrahydro-[1,1′-biphenyl]-3-yl)-N-methylacetamide]
≤ 1 | ≤ 1 | O=C1CN(c2c(O)ccc(-c3cnc(NS(=O)(=O)C4CC4)nc3)c2F)S(=O)(=O)N1 [Compound 234, N-(5-(3-(1,1-dioxido-4-oxo-1,2,5-thiadiazolidin-2-yl)-2-fluoro-4-hydroxyphenyl)pyrimidin-2-yl)cyclopropanesulfonamide]
≤ 1 | ≤ 1 | CS(=O)(=O)Nc1ccc(-c2ccc(O)c(N3CC(=O)NS3(=O)=O)c2F)cc1 [Compound 236, N-(3′-(1,1-dioxido-4-oxo-1,2,5-thiadiazolidin-2-yl)-2′-fluoro-4′-hydroxy-[1,1′-biphenyl]-4-yl)methanesulfonamide]
≤ 1 | ≤ 1 | O=C1CN(c2c(O)ccc(-c3cc(C4CC4)nn3CC3CC3)c2F)S(=O)(=O)N1 [Compound 239, 5-(3-(3-cyclopropyl-1-(cyclopropylmethyl)-1H-pyrazol-5-yl)-2-fluoro-6-hydroxyphenyl)-1,2,5-thiadiazolidin-3-one 1,1-dioxide]
≤ 1 | ≤ 1 | O=C1CN(c2c(O)ccc(-c3cnn(C4CC5(CCC5)C4)c3)c2F)S(=O)(=O)N1 [Compound 242, 5-(2-fluoro-6-hydroxy-3-(1-(spiro[3.3]heptan-2-yl)-1H-pyrazol-4-yl)phenyl)-1,2,5-thiadiazolidin-3-one 1,1-dioxide]
≤ 1 | ≤ 1 | COCCCc1cc(-c2ccc(O)c(N3CC(=O)NS3(=O)=O)c2F)[nH]n1 [Compound 243, 5-(2-fluoro-6-hydroxy-3-(3-(3-methoxypropyl)-1H-pyrazol-5-yl)phenyl)-1,2,5-thiadiazolidin-3-one 1,1-dioxide]
≤ 1 | ≤ 1 | O=C1CN(c2c(O)ccc(-c3cc(C(F)(F)F)n[nH]3)c2F)S(=O)(=O)N1 [Compound 247, 5-(2-fluoro-6-hydroxy-3-(3-(trifluoromethyl)-1H-pyrazol-5-yl)phenyl)-1,2,5-thiadiazolidin-3-one 1,1-dioxide]
